Data from PMC3937211, “Serine Carboxypeptidase SCPEP1 and Cathepsin A Play Complementary Roles in Regulation of Vasoconstriction via Inactivation of Endothelin-1” (PLoS Genetics, 2014).
No end group written: not given here.

Columns and labels:
[1] = tested on: mesenteric arteries; assay: Vessel reactivity ex vivo; set-up: species or system mouse; conditions: isolated mesenteric arteries; WT, Scpep1^−/−, CathA^S190A, DD; drugs added extraluminally
Description: Vessel reactivity ex vivo was analyzed as described, [40]. Briefly, male mice were sacrificed at five months and their mesenteric arteries were isolated and mounted onto glass capillaries in an artereograph chamber filled with cold oxygenated Krebs solution (118.6 mM NaCl, 4.7 mM KCl, 1.2 mM KH2PO4, 1.2 mM MgSO4, 25.1 mM NaHCO3, 26 µM EDTA, 0.18% glucose, 2.5 mM CaCl2). The arteries were constantly perfused intraluminally with Krebs solution at 30 mmHg. After 45 minutes of equilibration vascular reactivity was measured in response to Norepinephrine (Sigma A-0937, 10^−9–10^−5 M), Acetylcholine (Sigma A-6625, 10^−9–10^−4 M), Sodium Nitroprusside (Calbiochem 56538, 10^−9–10^−4 M), Endothelin-1 (American Peptide Company 88-1-10, 10^−11–10^−8 M) and AI, (American Peptide Company 12-1-10, 10^−8–10^−4 M). Drugs were added extraluminally with a 30 min washout period in between each drug, during which the arteries were able to re-equilibrate to a baseline. To test vasodilatation arteries were pre-contracted with NE to 70% of their equilibration diameter. At least 3 concentration response curves were conducted for each vessel and at least 6 animals were studied for each genotype.

[2] = tested on: MLC-2 phosphorylation in AVSMC (ETR-A, ETR-B); assay: Myosin light chain 2 phosphorylation by Western blot; format: cell-based, mouse; conditions: WT AVSMC, 30 min pre-treatment with 2 µM antagonist, then 5 min 100 nM ET-1, 3 independent experiments
Text: To verify at the molecular level if AVSMC from CathA^S190A/Scpep1^−/− mice have increased reactivity to ET-1, we studied intracellular signalling events in these cells in response to ET-1. ET-1 interacts with G-protein-associated endothelin type A (ETR-A) and type B (ETR-B) receptors on the surface of AVSMC. Activation of the receptors induces phospholipase C and increases the intracellular Ca^2+ level leading to activation of myosin light chain kinase that phosphorylates myosin light chain (MLC) [21]–[24]. This causes contraction of myosin filaments and shrinkage of the cells. We therefore, compared the level of MLC phosphorylation in AVSMC before or after treatment with ET-1 for the 4 strains of mice. AVSMC cultured overnight in serum-free medium were treated with or without 100 nM ET-1, harvested and analyzed by Western blot using antibodies against MLC-2 phosphorylated at Thr^18 and Ser^19 residues or against total MLC protein.
Figure 5 Cultured AVSMC from mice with combined CathA/Scpep1 deficiency show increased reactivity to ET-1. […] Total protein extracts were analyzed by Western blotting using antibodies specific for phosphorylated (pThr^18/Ser^19-MLC) and total MLC-2 protein. […] Total protein extracts were analyzed by Western blotting using antibodies specific for phosphorylated and total MLC-2 protein. […]

[3] = tested on: rats; conditions: induced by monocrotaline in rats; ref [33]; cited from earlier work
Text: The anti-hypertensive effect of retinoic acid tre ...

[4] = product of ET-1 cleavage by CathA in vitro; ref [13], [14]; cited from earlier work
Text: The bioavailability and potency of AII and ET-1 can be regulated through many factors such as alteration of receptor density and affinity, up- and down-regulation of peptide synthesis or release, enzymatic activation (ACE and ACE2 for AII, ECE and MMP-2 for ET-1 [8]), or degradation (neutral endopeptidase NEP for ET-1 [9]–[11]). Previously we have shown that circulating ET-1 is inactivated by lysosomal carboxypeptidase, cathepsin A (CathA) widely distributed in mammalian tissues (reviewed in [12]). The majority of CathA in the cell is found in the lysosome but significant pool of the e ...

Row | Compound | differences in vessel reactivity between the four groups of mice [1] | also measured
1 | NC[C@H](O)c1ccc(O)c(O)c1 [NE, norepinephrine] | no differences | 
2 | angiotensin I (DRVYIHPFHL; Angiotensin-1; UniProt P01019 25-34, looked up) [AI, precursor of vasoconstrictive peptide AII; American Peptide Company 12-1-10] | no differences | 
3 | CC(=O)OCC[N+](C)(C)C [ACh, acetylcholine] | no differences | 
4 | BQ788 |  | effect on ET-1-induced MLC-2 phosphorylation [2]: blocked
5 | CC1=C(/C=C/C(C)=C/C=C/C(C)=C/C(=O)O)C(C)(C)CCC1 [all-trans retinoic acid] |  | effect on pulmonary hypertension [3]: inhibit pulmonary hypertension
6 | des-Trp21-endothelin-1 (CSCSSLMDKECVYFCHLDII; ends and bridges not checked; cysteine pairing not given here; UniProt P05305 53-72, looked up, fragment) |  | biological activity [4]: biologically inactive
